Assay results reported in patent US8729074B2, “Inhibitors of PI3 kinase” (Amgen Inc., priority 2009, dated 2014).

System: phosphorylation of Serine 473 in Akt in HCT 116 cells
Experiment: Cell-based phospho-Akt Ser473 assay (HCT 116 cell)
Conditions: Homo sapiens; pAkt Ser473, HCT 116 cells, compound 2 hours, IGF-1 stimulation; average if run more than once; read-out: HCT116 Cell IC50
Source text: Cell-Based Phospho-Akt Ser473Assay (HCT 116 Cell)
This assay determines the ability of a compound to inhibit the phosphorylation of Serine 473 in Akt using a MSD based sandwich immunoassay (Meso Scale Detection, Meso Scale Discovery (MSD), Gaithersburg, Md.). HCT 116 human colon carcinoma cell lines can be grown in McCoy's 5A growth medium (GIBCO, Carlsbad, Calif.) containing 10% FBS (GIBCO, Carlsbad, Calif.) and X1 Penicillin-streptomycin-glutamine (GIBCO, Carlsbad, Calif.). Prior to the assay, cells can be detached from the culture flask with trypsin, and re-suspended in complete media to give a final concentration of 1.6×10^5 cells per mL. Aliquots (100 μl) of the HCT116 cell suspension can be seeded into each well of a 96 well tissue culture plate to give a final density of 16,000 cells per well. Cells can then be incubated overnight at 37° C.
The following day the cells can be treated with serially diluted test compounds and incubated for 2 hours at 37° C. The culture media on the HCT 116 cells can be replaced with 189 μL McCoys media, supplemented with 0.1% BSA (ICN Biomedicals, Inc., Costa Mesa, Calif.). Compounds can be prepared as either 10 mM or 0.5 mM stock solutions in DMSO, and serially diluted 3 fold in a 10-point dose-response curve to give final concentrations that are 200-fold greater than the desired final test concentration. […]
25 μL Cell lysate can then be transferred to pre-blocked MSD assay plates pre-coated with a capture antibody specific for Akt, and the plates can be incubated for 2 hours at room temperature. […] An aliquot of 150 μL of diluted MSD read buffer can then be applied to each well, and the electrochemiluminescent signal can be measured using a MSD SECTOR™ plate reader (Meso Scale Discovery, Gaithersburg, Md.). This instrument measures the intensity of emitted light to determine a quantitative measure of phosphorylated Akt in each well. The dose-response data obtained with each compound can be analyzed and the IC50 inhibition of Akt phosphorylation at Ser473 can be calculated. […]

Structure (SMILES)	IC50 [nM]
O=S(=O)(Nc1cc(-c2cnc3ccccn23)cnc1Cl)c1ccc(F)cc1 [Example 3, N-(2-Chloro-5-imidazo[1,2-a]pyridin-3-yl-3-pyridinyl)-4-fluorobenzenesulfonamide]	352
Cc1ccn2c(-c3cnc(Cl)c(NS(=O)(=O)c4ccc(F)cc4)c3)cnc2c1 [Example 4, N-(2-Chloro-5-(7-methylimidazo[1,2-a]pyridin-3-yl)-3-pyridinyl)-4-fluorobenzenesulfonamide]	180
O=S(=O)(Nc1cc(-c2cnc3ccc(Cl)nn23)cnc1Cl)c1ccc(F)cc1 [Example 25, N-(2-Chloro-5-(6-chloroimidazo[1,2-b]pyridazin-3-yl)pyridin-3-yl)-4-fluorobenzenesulfonamide]	564
